Reference: PMC13351981, “A multiscale screening platform for rapid GPCR variant profiling reveals color-tuned JSR1 mutants” (Biophysical Journal, 2025)

Assays:
Assay in all cases: UV/Vis absorption by HPLC-SEC diode array after reconstitution and purification
Assay type in all cases: binding
Conditions in all cases: 50 uM 9-cis retinal reconstitution; covalent (Schiff base to K321); pH 6.5, 20 C, LMNG/CHS
[1] = molecular target: T1, Jumping Spider Rhodopsin 1 (JSR1) (Hasarius adansoni, UniProt B1B1U5, S199V)
T1 construct: gene HaRh1; JSR1 WT + C-terminal 3C site, Twin-Strep, TEV, eGFP, His8; Hi5 insect cells (baculovirus); tags removed by HRV 3C; monomer in LMNG/CHS

[2] = molecular target: T2, Jumping Spider Rhodopsin 1 (JSR1) (Hasarius adansoni, UniProt B1B1U5, S199Y)
T2 construct: gene HaRh1; JSR1 WT + C-terminal 3C site, Twin-Strep, TEV, eGFP, His8; Hi5 insect cells (baculovirus); tags removed by HRV 3C; monomer in LMNG/CHS

[3] = molecular target: T3, Jumping Spider Rhodopsin 1 (JSR1) (Hasarius adansoni, UniProt B1B1U5, S199I)
T3 construct: gene HaRh1; JSR1 WT + C-terminal 3C site, Twin-Strep, TEV, eGFP, His8; Hi5 insect cells (baculovirus); tags removed by HRV 3C; monomer in LMNG/CHS

[4] = molecular target: T4, Jumping Spider Rhodopsin 1 (JSR1) (Hasarius adansoni, UniProt B1B1U5, S199H)
T4 construct: gene HaRh1; JSR1 WT + C-terminal 3C site, Twin-Strep, TEV, eGFP, His8; Hi5 insect cells (baculovirus); tags removed by HRV 3C; monomer in LMNG/CHS

[5] = molecular target: T5, Jumping Spider Rhodopsin 1 (JSR1) (Hasarius adansoni, UniProt B1B1U5)
T5 construct: gene HaRh1; JSR1 WT + C-terminal 3C site, Twin-Strep, TEV, eGFP, His8; Hi5 insect cells (baculovirus); tags removed by HRV 3C; monomer in LMNG/CHS

[6] = molecular target: T6, Jumping Spider Rhodopsin 1 (JSR1) (Hasarius adansoni, UniProt B1B1U5, S199L)
T6 construct: gene HaRh1; JSR1 WT + C-terminal 3C site, Twin-Strep, TEV, eGFP, His8; Hi5 insect cells (baculovirus); tags removed by HRV 3C; monomer in LMNG/CHS

[7] = molecular target: T7, Jumping Spider Rhodopsin 1 (JSR1) (Hasarius adansoni, UniProt B1B1U5, S199F)
T7 construct: gene HaRh1; JSR1 WT + C-terminal 3C site, Twin-Strep, TEV, eGFP, His8; Hi5 insect cells (baculovirus); tags removed by HRV 3C; monomer in LMNG/CHS
T7 sequence (B1B1U5 entry or part of it S199F): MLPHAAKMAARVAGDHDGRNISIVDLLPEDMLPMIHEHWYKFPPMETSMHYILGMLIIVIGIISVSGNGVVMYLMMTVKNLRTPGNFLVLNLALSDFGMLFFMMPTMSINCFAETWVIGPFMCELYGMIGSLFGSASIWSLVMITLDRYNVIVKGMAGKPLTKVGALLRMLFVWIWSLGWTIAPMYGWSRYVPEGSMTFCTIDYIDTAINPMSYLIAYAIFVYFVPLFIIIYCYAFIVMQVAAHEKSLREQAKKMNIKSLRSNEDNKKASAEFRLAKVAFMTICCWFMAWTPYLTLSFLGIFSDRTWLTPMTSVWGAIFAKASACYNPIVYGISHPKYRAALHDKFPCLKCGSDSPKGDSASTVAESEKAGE

T5 sequence (B1B1U5 entry or part of it): as the sequence (B1B1U5 entry or part of it S199F) above, with F199S counted along it
T1 sequence (B1B1U5 entry or part of it S199V): as the sequence (B1B1U5 entry or part of it S199F) above, with F199V counted along it
T2 sequence (B1B1U5 entry or part of it S199Y): as the sequence (B1B1U5 entry or part of it S199F) above, with F199Y counted along it
T3 sequence (B1B1U5 entry or part of it S199I): as the sequence (B1B1U5 entry or part of it S199F) above, with F199I counted along it
T6 sequence (B1B1U5 entry or part of it S199L): as the sequence (B1B1U5 entry or part of it S199F) above, with F199L counted along it
T4 sequence (B1B1U5 entry or part of it S199H): as the sequence (B1B1U5 entry or part of it S199F) above, with F199H counted along it

## CC1=C(/C=C/C(C)=C\C=C\C(C)=C\C=O)C(C)(C)CCC1 [9-cis retinal]
[1]
  UV/Vis absorption by HPLC-SEC diode array after reconstitution and purification: These mutations cause a full deprotonation in the 9-cis retinal-bound ground state
[2]
  UV/Vis absorption by HPLC-SEC diode array after reconstitution and purification: These mutations cause a full deprotonation in the 9-cis retinal-bound ground state
[3]
  UV/Vis absorption by HPLC-SEC diode array after reconstitution and purification: These mutations cause a full deprotonation in the 9-cis retinal-bound ground state
[4]
  UV/Vis absorption by HPLC-SEC diode array after reconstitution and purification: These mutations cause a full deprotonation in the 9-cis retinal-bound ground state
[5]
  UV/Vis absorption by HPLC-SEC diode array after reconstitution and purification: We observed that all mutants incorporated 9-cis retinal successfully|established workflow with 9-cis retinal-reconstituted JSR1
[6]
  UV/Vis absorption by HPLC-SEC diode array after reconstitution and purification: These mutations cause a full deprotonation in the 9-cis retinal-bound ground state
[7]
  UV/Vis absorption by HPLC-SEC diode array after reconstitution and purification: These mutations cause a full deprotonation in the 9-cis retinal-bound ground state
